# Assays:
# aldose reductase = molecular target: T1, aldose reductase (Rattus norvegicus, UniProt P07943); experiment: Aldose reductase inhibitory effect (enzyme from crystalline lenses, DL-glyceraldehyde substrate); type: biochemical, rat (male SD); conditions: 10 mM DL-glyceraldehyde, pH 6.2, 30° C.
# T1 construct: Then their crystalline lenses were immediately removed and stored at -80° C; The lenses were homogenized; from tissue; host or cells: crystalline lenses of six-week-old male SD rats
# Protocol: Six-weeks-old male SD rates were anesthetized with ether and killed. Then their crystalline lenses were immediately removed and stored at -80° C. […] All operations were conducted at 4° C. and the enzyme solution was stored at -80° C.
# More specifically, 0.1 ml of DL glyceraldehyde (final concentration: 10 mM) was added to 0.9 ml of 100 mM sodium potassium phosphate buffer (pH 6.2) which contained lithium sulfate (final concentration: 400 mM), reduced nicotinamide adenine dinucleotide phosphate (final concentration: 0.15 mM), the enzyme solution, and the compound to be evaluated (final concentration: 10^-6 M, 10^-7 M or […]), and then the reaction was conducted at 30° C. for 5 minutes. During the reaction, the change in the absorbance at 340 nm with time was monitored. The maximum reducing rate of the absorbance (U) during the reaction was determined. By subtracting, from this value, the maximum reducing rate (Uo) at 340 nm of the reaction solution before the addition of the substrate (DL-glyceraldehyde), the reaction rate (V=U-Uo) was calculated as a true reaction rate in the presence of the compound to be tested.
# The same procedure was repeated except for the absence of the compound to be tested. A true reaction rate (Vo) in case the enzyme was not inhibited was calculated (Vo =U'-Uo '). The aldose reductase inhibitory activity of the test compounds was determined according to the following formula:
# Rate of Inhibition (%)=(Vo -V)/Vo ×100
# [1] = test system: accumulation of sorbitol in sciatic nerve; experiment: Inhibiting the accumulation of sorbitol in sciatic nerve of streptozotocin diabetic rats; type: in vivo, Sprague-Dawley male rats; conditions: twice a day for 5 days
# Protocol: Groups of 6 to 8-weeks-old Sprague-Dawley male rats (4 aminals per group) were fasted for 18 hours and streptozotocin was injected through the tail vein in a dose of 60 mg/kg to thus obtain diabetic rats. Immediately after the administration of the streptozotocin, each compound to be tested was orally administered to these rats in the form of a suspension at a dose of 10 mg/kg, 30 mg/kg and 50 mg/kg (each was suspended in a 0.5% sodium carboxymethyl cellulose solution) twice a day (9 o'clock in the morning and 5 o'clock in the afternoon) for 5 days. During the test, the rats took diet and drank water freely. 4 Hours after the final administration of the drug in the 5th day's morning (9 o'clock in the morning), the rats were sacrificed and then the sciatic nerve thereof was removed to determine the amount of sorbitol accumulated therein.
# The results are expressed in the percentage obtained while the value obtained on the control to which any drug was not administered is defined to be 100.
Compound,IC50 (aldose reductase) [nM],Rate of Inhibition of Sorbitol Accumulation ([1]; 10 mg/kg oral) [%],Rate of Inhibition of Sorbitol Accumulation ([1]; 30 mg/kg oral) [%],Rate of Inhibition of Sorbitol Accumulation ([1]; 50 mg/kg oral) [%]
"CC(/C=C1\SC(=S)N(CC(=O)O)C1=O)=C\c1ccccc1 [ONO-2235, (E)-3-carboxymethyl-5-[(2E)-methyl-3-phenylpropenylidene] rhodan, reference compound]",–,0,0,40
"O=C(O)Cn1nnnc1-c1ccsc1Sc1ccccc1 [Example 2-33, [5-(2-phenylthio-3-thienyl)tetrazol-1-yl] acetic acid]",24,–,–,–
"CCN(CC)S(=O)(=O)c1sccc1-c1nnnn1CC(=O)O [Example 2-38, [5-[2-(N,N-diethylaminosulfonyl)-3-thienyl)tetrazol-1-yl] acetic acid]",460,–,–,–
"CCCC(=O)Nc1ccsc1-c1nnnn1CC(=O)O [Example 2-18, [5-(3-propylcarbonylamino-2-thienyl)tetrazol-1-yl] acetic acid]",20,–,–,–
"CS(=O)(=O)c1sccc1-c1nnnn1CC(=O)O [Example 2-44, [5-(2-methylsulfonyl-3-thienyl)tetrazol-1-yl] acetic acid]",520,–,–,–

# Further lines, with some results ahead:
IC50 (aldose reductase) [nM],Compound,Rate of Inhibition of Sorbitol Accumulation ([1]; 10 mg/kg oral) [%],Rate of Inhibition of Sorbitol Accumulation ([1]; 30 mg/kg oral) [%],Rate of Inhibition of Sorbitol Accumulation ([1]; 50 mg/kg oral) [%]
30,"O=C(O)Cn1nnnc1-c1ccoc1 [Example 2-7, [5-(3-furyl)tetrazol-1-yl] acetic acid]",46,77,–
16,"O=C(O)Cn1nnnc1-c1cccs1 [Example 2-1, [5-(2-thienyl)tetrazol-1-yl] acetic acid]",68,89,–
18,"Cc1ccsc1-c1nnnn1CC(=O)O [Example 2-2, [5-(3-methyl-2-thienyl)tetrazol-1-yl] acetic acid]",62,93,–
21,"O=C(O)Cn1nnnc1-c1ccsc1 [Example 2-5, [5-(3-thienyl)tetrazol-1-yl] acetic acid]",73,90,–
